# Assay results taken from patent US20050058658A1, “Compositions and methods for immunotherapy of human immunodeficiency virus (HIV)” (priority 2003, published 2005).
# Key:
# [1] = system: HIV-1IIIB infected CEM-SS cells; assay: p24 antigen ELISA, HIV-1 hollow fiber mouse model; assay type: in vivo; conditions: 150 mg/kg twice daily (300 mg/kg/day), day 7
# Description: (§1) The HIV-1 hollow fiber mouse model was performed (Hollingshead et al., Antiviral Res. 1995, 28:265-279; Buckheit et al., AIDS Res. Hum. Retroviruses 1997, 13:789-796; Xu et al., Bioorg. Med. Chem. Lett. 1999, 9:133-138; Quenelle et al., Antiviral Res. 1997, 35:123-129). In brief, CEM-SS cells were infected with HIV-1IIIB at a multiplicity of infection (MOI) of 0.0002 and sealed in hollow fibers (2×10^5 cells/fiber) immediately prior to implantation in the mice. Cell control hollow fibers (mock infected) and blank fibers (containing tissue culture medium without cells or virus) were prepared in a similar manner. Hollow fibers were implanted in the subcutaneous and intraperitoneal compartments of the mice (three fibers/compartment/mouse). Mice were treated with the E. tenella protein extract once daily (0.1 mL/10 g body weight) on day 0 (immediately prior to implantation of the fibers) and on days 1-6. Cell control, virus control and blank control mice were dosed similarly using 30 mM Hepes. AZT treated mice were also dosed similarly, however, dosing was performed twice daily at a concentration of 150 mg/kg (300 mg/kg/day). On day seven post implantation, the fibers, blood samples and peritoneal wash were collected from the mice. The viability of the infected CEM-SS cells collected from hollow fibers was determined using an MTT dye conversion assay. Viral reverse transcriptase assay and p24 (capsid) antigen quantification were performed on the hollow fiber cultures as well as the blood samples and the peritoneal wash. Of the three fibers collected from each compartment (intraperitoneal and subcutaneous), one fiber was used for analysis of viral reverse transcriptase and p24, while the remaining two fibers used to analyze cell viability by MTT dye reduction. The experimental treatment groups used in the study included the following: • 1. E. tenella protein extract concentration #1 (virus infected fibers; 7 mice) • 2. E. tenella protein extract concentration #2 (virus infected fibers; 7mice) • 3. E. tenella protein extract concentration #3 (virus infected fibers; 7 mice) • 4. AZT; positive control antiviral drug (virus infected fibers; 7 mice) • 5. Virus Control, no drug treatment (treated with vehicle; virus infected fibers; 7 mice) • 6. Cell Control, no drug treatment (treated with vehicle; mock-infected fibers; 7 mice) • 7. Blank Control, no drug treatment (treated with vehicle; “empty” fibers; 2 mice) MTT Staining for Cell Viability:
# Following collection of the fibers from the mice, detection of p24 antigen was performed according to the manufacturer's instructions. Individual fibers were cut open and placed in Eppendorf tubes and cells lysed by the addition of 250 μl of lysis buffer (0.02 M Tris-HCl pH 7.5, 0.05 M NaCl, 0.5% Triton X-100), incubation at room temperature for 30 minutes, vortexing, followed by centrifugation at 14,000 rpm for four minutes in a microcentrifuge. Serum and peritoneal wash samples were clarified by centrifugation without further manipulation prior to analysis. All p24 determinations on the resulting supernatants were performed following serial dilution of the samples to ensure absorbances in the linear range of the standard p24 antigen curve. The standard curve is produced using manufacturer-supplied standards and instructions. Data are obtained by spectrophotometric analysis at 450/570 nm using a Molecular Devices Vmax or SpectraMaxPlus plate reader. Final concentrations are calculated from the optical density values using the Molecular Devices SoftMax Pro software package and expressed in pg/ml p24 antigen.
# [2] = system: HIV-1IIIB infected CEM-SS cells; assay: MTT staining for cell viability, HIV-1 hollow fiber mouse model; assay type: in vivo
# Description: as §1
# The viability of cells in the hollow fiber cultures was measured using an MTT dye reduction assay. MTT is a tetrazolium dye that is metabolized by the mitochondria enzymes of metabolically active cells to yield a […] formazan product that can be detected spectrophotometrically. Following collection from the animals, hollow fibers were placed individually into the wells of a 6-well tissue culture plate containing 2 mL of pre-warmed (37° C.) RPMI medium (without phenol red) supplemented with 20% fetal bovine serum. Cells were assayed to viability by adding 180 μL of MTT stock solution (pre-warmed to 37° C.) to each of the wells, followed by incubation for 4 hours at 37° C. in a 5% CO2 atmosphere, removal of medium/MTT solution, and addition of 4 mL of 2.5% Protamine Sulfate (PMS). […] Subsequently, 150 μL of each sample was transferred to a 96 well plate and the optical density of the samples read at 570/650 nm using a Molecular Devices Vmax or SpectraMaxPlus plate reader.
# [3] = system: HIV-1IIIB infected CEM-SS cells; assay: Reverse transcriptase assay, HIV-1 hollow fiber mouse model; assay type: in vivo; conditions: 150 mg/kg twice daily (300 mg/kg/day), day 7
# Description: as §1
# A microtiter plate-based reverse transcriptase (RT) reaction was utilized (Buckheit et al., AIDS Research and Human Retroviruses 1991, 7:295-302). Tritiated thymidine triphosphate (^3H-TTP 80 Ci/mmol, NEN) was received in 1:1 dH2O: Ethanol at 1 mCi/mL. Poly rA:oligo dT template:primer (Pharmacia) was prepared as a stock solution by combining 150 μL poly rA (20 mg/mL) with 0.5 mL oligo dT (20 units/mL) and 5.35 mL sterile dH2O followed by aliquoting (1.0 mL) and storage at −20° C. The RT reaction buffer was prepared fresh on a daily basis and consisted of 125 μL 1.0 M EGTA, 125 μL dH2O, 125 μL 20% Triton X100, 50 μL 1.0 M Tris (pH 7.4), 50 μL 1.0 M DTT, and 40 μL 1.0 M MgCl2. The final reaction mixture was prepared by combining 1 part ^3H-TTP, 4 parts dH2O, 2.5 parts poly rA:oligo dT stock and 2.5 parts reaction buffer. Ten microliters of this reaction mixture was placed in a round bottom microtiter plate and 15 μL of supernatant resulting from the lysis of cells collected from the fibers (see the section describing the p24 Antigen ELISA above) or serum or peritoneal wash (serum and peritoneal wash samples were clarified by centrifugation without further manipulation prior to analysis) was added and mixed. The plate was incubated at 37° C. for 60 minutes. […]
# [4] = system: experimental autoimmune encephalomyelitis (EAE); assay: Experimental autoimmune encephalomyelitis (EAE) model; assay type: in vivo, SJL mice; conditions: 5 mg s.c. daily for 5 days from day 10
# Description: This hyposthesis was tested in the experimental autoimmune encephalomyelitis (EAE) model in SJL mice. EAE is induced in mice by immunization with spinal cord derived myelin basic protein which induces a disease in the mice which is very similar to multiple schlerosis (MS) in humans.
# Treatments were given daily for 5 days. Linomide is a drug that is known to inhibit EAE and is used as a positive control. […] Severity of EAE is measured by means of the EAE score which starts at 0 for normal and increases to a score of 5 when death occurs. For ethical reasons mice are sacrificed when a score of 4 is reached.
# [5] = 150 mg/kg twice daily (300 mg/kg/day), day 7
# [6] = 150 mg/kg twice daily (300 mg/kg/day), fibers day 7, optical density 570/650 nm
compound,measurement,setting,value
"Cc1cn([C@H]2C[C@H](N=[N+]=[N-])[C@@H](CO)O2)c(=O)[nH]c1=O [AZT, 3′-Azido-3′-deoxythymidine]","p24 Intraperitoneal Fiber, % Virus Control, % Value",[1],99.1%
same,"p24 Intraperitoneal Fiber, Average",[1],215136 pg/mL
same,"p24 Peritoneal Wash, % Virus Control, % Value",[1],92.8%
same,"p24 Peritoneal Wash, Average",[1],109 pg/mL
same,"p24 Serum, % Virus Control, % Value",[1],37.0%
same,"p24 Serum, Average",[1],18 pg/mL
same,"p24 Subcutaneous Fiber, % Virus Control, % Value",[1],110.3%
same,"p24 Subcutaneous Fiber, Average",[1],312334 pg/mL
same,"MTT Intraperitoneal Fiber, % CPE Reduction, % Value",[2]; [5],0.00%
same,"MTT Subcutaneous Fiber, % CPE Reduction, % Value",[2]; [5],6.83%
same,"MTT Intraperitoneal Fiber, Average",[2]; [6],1.11
same,"MTT Subcutaneous Fiber, Average",[2]; [6],0.96
same,Effect on cytopathic effect (CPE) of HIV-1IIIB on CEM-SS cells,"[2]; hollow fiber cultures, all concentrations tested",did not have an effect on this viral endpoint
same,"Reverse Transcriptase Intraperitoneal Fiber, % Virus Control, % Value",[3],52.8%
same,"Reverse Transcriptase Intraperitoneal Fiber, Average",[3],6372 CPM
same,"Reverse Transcriptase Peritoneal Wash, % Virus Control, % Value",[3],25.7%
same,"Reverse Transcriptase Peritoneal Wash, Average",[3],392 CPM
same,"Reverse Transcriptase Serum, % Virus Control, % Value",[3],52.8%
same,"Reverse Transcriptase Serum, Average",[3],403 CPM
same,"Reverse Transcriptase Subcutaneous Fiber, % Virus Control, % Value",[3],71.9%
same,"Reverse Transcriptase Subcutaneous Fiber, Average",[3],10178 CPM
CN(C(=O)c1c(O)c2ccccc2n(C)c1=O)c1ccccc1 [Linomide],Day 15 EAE Score ± SD,[4],0.6 ± 1.3
